The values that follow are results of earlier work, collected in US11603570B2, “Methods for the detection and treatment of leukemias that are responsive to DOT1L inhibition” (MEMORIAL SLOAN KETTERING CANCER CENTER, priority 2013, dated 2023).

Read-outs that look alike come from different tables or passages of the source.

One data set has as its system other methyltransferases. As to conditions: in words; FIG. 1B; cited from earlier work.
Data set [1] has as its system MLL-rearranged leukemia xenograft. As to conditions: cited from earlier work.
For data set [2] the following is noted: rats; cited from earlier work.
The conditions of data set [3]: dogs; cited from earlier work.
The conditions of data set [4]: cited from earlier work.
The conditions of data set [5]: mice or rats, at a dose efficacious against MLL-translocated leukemia cells; cited from earlier work.
In data set [6] the test system is MLL-translocated leukemia cells. Particulars: infusion, including continuous infusion; cited from earlier work.

Consider `CC(C)N(C[C@H]1O[C@@H](n2cnc3c(N)ncnc32)[C@H](O)[C@@H]1O)C1CC(CCc2nc3cc(C(C)(C)C)ccc3[nH]2)C1` (stereo partly drawn) [EPZ005676, (2R,3R,4S,5R)-2-(6-amino-9H-purin-9-yl)-5-((((1r,3S)-3-(2-(5-(tert-butyl)-1H-benzo[d]imidazol-2-yl)ethyl)cyclobutyl)(isopropyl)amino)methyl)tetrahydrofuran-3,4-diol], for which the “specificity for DOT1L / H3K79me as compared to other methyl transferases” value in the data set on other methyltransferases is “highly selective”. For the same compound, the “tumor response at the highest dose” value in data set [1] (continuous intravenous infusion for 21 days, highest dose) is reported as “complete tumor regressions”. The anti-tumor activity result in data set [1] (continuous intravenous infusion for 21 days) is recorded as “dose-dependent anti-tumor activity”. For the same compound, the “no regrowth after the cessation of treatment” value in data set [1] (highest dose) is listed as “up to 32 days”. Further, the “effective pharmacokinetic half-life in systemic circulation” value in data set [2] was 15 min; in data set [3], 90 min. For the same compound, in data set [4], the “solubility in aqueous solution” value is “soluble”. The hematopoietic toxicity result in data set [5] is given as “did not show hematopoietic toxicity”. Further, in data set [6], the “growth of MLL-translocated leukemia cells in mice” value is recorded as “suppresses the growth”.
